Source: US20250228913A1, “STABILIZED OMEGA-3 OPHTHALMIC COMPOSITIONS” (Allergan, Inc., priority 2014, published 2025)
“Also recorded” adds a separate entry of the source. Like-named read-outs stand apart in the source and are kept apart here.

What was measured:
[1] = Physical appearance of omega-3 emulsions on storage; type: physicochemical; details: added in the oil phase
[2] = Physical and chemical stability monitoring of emulsion prototypes with different antioxidants and additives
Protocol: A variety of ophthalmic compositions were evaluated which contained antioxidants with the intent to prevent the degradation of the omega-3 oil components. A common problem with omega-3 oils is their propensity to degrade and become rancid over time.
Emulsion prototypes were designed using a range of excipients including different surfactants, antioxidants and aqueous additives. The physical and chemical stability of these prototype formulations were monitored over 3, 6 and/or 12 months at accelerated and/or long-term storage conditions. […] Details of these stability studies are provided in the examples herein.

[3] = Chemical stability of omega-3 oils in emulsions (FIG. 1, FIG. 2); details: emulsions of Table 10

Compound	Effect on physical stability of omega-3 oils in emulsion [1]	Effect of antioxidant or additive on stability of omega-3 oils ([2]; in ophthalmic emulsions)	Effect of antioxidant or additive on stability of omega-3 oils [2]	Effect of excipient on chemical stability of omega-3 oils in emulsion [3]
COc1ccc(O)c(C(C)(C)C)c1 [BHA, Butylated hydroxyanisole]	improved physical stability	stabilizing effect	–	–
Cc1cc(C(C)(C)C)c(O)c(C(C)(C)C)c1 [BHT, 2,6-bis(1,1-dimethylethyl)-4-methylphenol]	improved physical stability	–	stabilizing effect	–
O=C([O-])CN(CCN(CC(=O)[O-])CC(=O)O)CC(=O)O.[Na+].[Na+] [EDTA, edetate disodium]	–	did not impact stability	–	No significant impact
CC(=O)Oc1c(C)c(C)c2c(c1C)CCC(C)(CCC[C@H](C)CCC[C@H](C)CCCC(C)C)O2 (stereo partly drawn) [Vitamin E acetate]	–	did not show beneficial effects; also recorded: led to degradation of omega-3 oil	–	–
Cc1c(C)c2c(c(C)c1O)CC[C@@](C)(CCC[C@H](C)CCC[C@H](C)CCCC(C)C)O2 [alpha tocopherol]	–	–	–	worsened the chemical stability
CC(=O)C(=O)O [pyruvate]	–	–	did not impact stability	No significant impact
OC[C@H]1O[C@H](O[C@H]2O[C@H](CO)[C@@H](O)[C@H](O)[C@H]2O)[C@H](O)[C@@H](O)[C@@H]1O [trehalose]	–	–	did not impact stability	–
vitamin E	–	–	not effective	–
